Experimental data as given in US20240108737A1, “ANTI-INFECTIVE BICYCLIC PEPTIDE LIGANDS” (priority 2021, published 2024).
*1 amine or outer side, *2 acyl side, *3 side chain or, on linkers, in order; H or OH if unused. Where a SMILES comes first, the peptide text is derived from it. Bridges are numbered along the chain shown (N, C = ends). Roman numbers before positions name the chains, in order. [ ]: non-standard residue; d: D form. X1 = O=C(CCOCCOCCOCCOCCOCCOCCOCCOCCOCCOCCOCCOCCOCCOCCOCCOCCOCCOCCOCCOCCOCCOCCOCCOCCn1cc(CCC(=O)[*:2])nn1)[*:1]; TATB = O=C(C[*:1])N1CN(C(=O)C[*:2])CN(C(=O)C[*:3])C1; X2 = C(c1nc(C[*:2])nc(C[*:3])n1)[*:1]; hArg = N=C(N)NCCCC[C@H](N)C(=O)O; tBuAla = CC(C)(C)C[C@H](N)C(=O)O

System: SARS-CoV-2 pseudotyped HIV-1 virions, D614G

CC(=O)N[C@H]1CSCC(=O)N2CN3CN(C2)C(=O)CSC[C@H](NC(=O)[C@H](C(C)C)NC(=O)[C@@H]2CCCN2C(=O)[C@H](CC(N)=O)NC(=O)[C@H](CC(=O)O)NC(=O)[C@@H]2CCCN2C(=O)[C@H](CC(N)=O)NC(=O)[C@H](C)NC1=O)C(=O)N[C@@H](CCCNC(=N)N)C(=O)N[C@@H](Cc1ccccc1)C(=O)N[C@@H](Cc1ccc(O)cc1)C(=O)N[C@H](C(=O)N[C@@H](CCCCNC(=O)CCOCCOCCOCCOCCOCCOCCOCCOCCOCCOCCOCCOCCOCCOCCOCCOCCOCCOCCOCCOCCOCCOCCOCCOCCn1cc(CCC(=O)NCCCC[C@H](NC(=O)[C@@H]2CSCc4nc5nc(n4)CSC[C@H](NC(C)=O)C(=O)N4CCC[C@H]4C(=O)N[C@@H](Cc4ccc(O)cc4)C(=O)N[C@@H](C(C)C)C(=O)N[C@@H](C)C(=O)NCC(=O)N[C@@H](CCCCNC(=N)N)C(=O)N[C@H](C)C(=O)N[C@@H]([C@@H](C)O)C(=O)N[C@@H](CSC5)C(=O)N[C@@H](CC(C)C)C(=O)N[C@@H](CC(C)(C)C)C(=O)N2)C(N)=O)nn1)C(N)=O)CSCC3=O [BCY18786] (I: Ac-CANPDNPVCRFYCK-NH2 / II: Ac-CPYVAG[hArg][dA]TCL[tBuAla]CK-NH2; linker I:1-I:9-I:13 via TATB; linker I:14-II:14 via X1; linker II:1-II:10-II:13 via X2)
IC50: 20 nM
